In patent US11485708B2, “Compounds for treatment of PD-L1 diseases” (CHEMOCENTRYX, INC., priority 2019, dated 2022) one finds IC50 data, which are given here for 43 compounds.

The experiment addresses human PD-L1 / Human PD-1 (Homo sapiens (Human), UniProt Q9NZQ7). In words: Enzyme-Linked Immunosorbent Assay (ELISA), PD-1/PD-L1 binding. The following applies: plates coated with human PD-L1, biotinylated human PD-1 added. As to the method:
96 Well plates were coated with 1 μg/mL of human PD-L1 (obtained from R&D) in PBS overnight at 4′° C. The wells were then blocked with 2% BSA in PBS (W/V) with 0.05% TWEEN-20 for 1 hour at 37′° C. The plates were washed 3 times with PBS/0.05% TWEEN-20 and the compounds were serial diluted (1:5) in dilution medium and added to the ELISA plates. Human PD-1 and biotin 0.3 μg/mL (ACRO Biosystems) were added and incubated for 1 hour at 37° C. then washed 3 times with PBS/0.05% TWEEN-20. A second block was performed with 2% BSA in PBS (WNV)/0.05% TWEEN-20 for 10 min at 37° C. and the plates were washed 3 times with PBS/0.05% TWEEN-20. Streptavidin-HIRP was added for 1 hour at 37° C. then the plates were washed 3 times with PBS/0.05% TWEEN-20. TMB substrate was added and reacted for 20 min at 37° C. A stop solution (2 N aqueous H2SO4) was added. The absorbance was read at 450 nm using a micro-plate spectrophotometer.

human PD-L1 / Human PD-1, sequence (Q9NZQ7 19-239): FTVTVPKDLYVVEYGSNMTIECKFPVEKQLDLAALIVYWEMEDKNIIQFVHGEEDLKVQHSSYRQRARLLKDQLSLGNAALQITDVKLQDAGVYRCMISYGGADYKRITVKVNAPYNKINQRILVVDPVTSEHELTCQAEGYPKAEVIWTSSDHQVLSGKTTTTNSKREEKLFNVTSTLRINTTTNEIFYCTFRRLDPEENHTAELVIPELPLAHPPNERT

For orientation: IC50 means the midpoint of a concentration-inhibition curve. A low value points to greater potency. `Cc1c(OCCCN2[C@H](C)CC[C@H]2C)cccc1-c1cccc(-c2ccc3c(c2)CC(C(=O)O)NC3)c1C` (stereo partly shown) [Compd 1.068]: the IC50 was under 1000 nM.
In turn, `Cc1c(OCCCN2[C@H](C)CC[C@H]2C)cccc1-c1cccc(-c2ccc([C@H](C)N)cc2)c1C` [Compd 1.098] displayed a concentration for half-maximal inhibition (IC50) of under 1000 nM.
The compound `Cc1c(OCCCN2[C@H](C)CC[C@H]2C)cccc1-c1cccc(-c2ccc(CNCCCC(=O)O)cc2)c1C` [Compd 1.100] showed a concentration for half-maximal inhibition (IC50) of under 1000 nM.
`Cc1c(OCCCN2[C@H](C)CC[C@H]2C)cccc1-c1cccc(-c2ccc3c(c2)CC(CO)NC3)c1C` (stereo partly shown) [Compd 1.069] displayed an IC50 of under 1000 nM.
As for `Cc1c(OCCCN2CCC2(C)C)cccc1-c1cccc(-c2ccc3c(c2)CNCC3)c1C` [Compd 1.124], the figure is under 1000 nM; as for `Cc1c(OCCCN2CCC(O)CC2)cccc1-c1cccc(-c2ccc3c(c2)CCNC3)c1C` [Compd 1.111], under 1000 nM; as for `COc1cc(-c2cccc(-c3cccc(-n4ccnc4)c3C)c2C)cc(F)c1CN1CC(C(=O)O)C1` [Compd 1.006], 1000 to 10000 nM.
Take `COc1cc(-c2cccc(-c3cccc(-c4cc(F)c(CNCCCCC(=O)O)c(OC)c4)c3C)c2C)cc(F)c1CNCCCCC(=O)O` [Compd 1.054]: the IC50 was under 1000 nM.
`COc1cc(-c2cccc(-c3cccc(-c4cc(F)c(CNCCS(=O)(=O)O)c(OC)c4)c3C)c2C)cc(F)c1CNCCS(=O)(=O)O` [Compd 1.041, 2,2′-(((3,3′″-difluoro-5,5′″-dimethoxy-2′,2″-dimethyl-[1,1′:3′,1″:3″,1′″-quaterphenyl]-4,4′″-diyl)bis(methylene))bis(azanediyl))bis(ethane-1-sulfonic Acid)]: the IC50 is under 1000 nM.
As to `Cc1c(OCCCN2CCC(C)(F)CC2)cccc1-c1cccc(-c2ccc3c(c2)CCNC3)c1C` [Compd 1.104], the 50% inhibitory concentration (IC50) is under 1000 nM.
`Cc1c(OCCCN2CCC(F)CC2)cccc1-c1cccc(-c2ccc(CN(C)C)c(C(F)(F)F)c2)c1C` [Compd 1.084] came in with an IC50 of 1000 to 10000 nM.
As to `COc1c(-c2ccc3c(c2)CCNC3)cccc1-c1cccc(OCCCN2CCC2(C)C)c1C` [Compd 1.088, 6-(3′-(3-(2,2-dimethylazetidin-1-yl)propoxy)-2-methoxy-2′-methyl-[1,1′-biphenyl]-3-yl)-1,2,3,4-tetrahydroisoquinoline], the half-maximal inhibitory concentration (IC50) was under 1000 nM.
With `COc1cc(-c2cccc(-c3cccc(-c4ccc5c(c4)CCNC5)c3C)c2C)cc(F)c1CNCCO` [Compd 1.040, 2-(((3-fluoro-5-methoxy-2′,2″-dimethyl-3″-(1,2,3,4-tetrahydroisoquinolin-6-yl)-[1,1′:3′,1″-terphenyl]-4-yl)methyl)amino)ethan-1-ol], the IC50 was under 1000 nM.
The compound `COc1cc(-c2cccc(-c3cccc(-c4cc(F)c(CNCCCCO)c(OC)c4)c3C)c2C)cc(F)c1CNCCCCO` [Compd 1.049] had a concentration for half-maximal inhibition (IC50) of under 1000 nM.
In the case of `COc1cc(-c2cccc(-c3cccc(-c4cc(F)c(CN)c(OC)c4)c3C)c2C)ccc1C(=O)O` [Compd 1.005], the half-inhibitory concentration (IC50) was in the range of 1000 to 10000 nM.
Regarding `Cc1c(-c2ccc3c(c2)CCNC3)cccc1-c1cccc(OCCCN2[C@H](C)CC[C@H]2C)c1F` [Compd 1.091], the IC50 is under 1000 nM.
As to `COc1cc(-c2cccc(-c3cccc4c3CCNC4)c2C)cc(F)c1CN` [Compd 1.022], the IC50 fell in the range of 1000 to 10000 nM.
For `COc1cc(-c2cccc(-c3cccc(OCCCN4[C@H](C)CC[C@H]4C)c3C)c2C)ccc1CN(C)C` [Compd 1.073], the IC50 is under 1000 nM.
For the compound `Cc1ccccc1-c1cccc(-c2ccc3c(c2)CCNC3)c1C` [Compd 1.117, 6-(2,2′-dimethyl-[1,1′-biphenyl]-3-yl)-1,2,3,4-tetrahydroisoquinoline], the IC50 lay within 1000 to 10000 nM.
Regarding `Cc1c(OCCCN2[C@H](C)CC[C@H]2C)cccc1-c1cccc(-c2ccc(CN(C)C)cc2)c1C` [Compd 1.122], the IC50 is under 1000 nM.
As for `COc1cc(-c2cccc(-c3ccc4c(c3)OC(C3=NCCN3)CO4)c2C)cc(F)c1CN` (stereo not shown) [Compd 1.009], the figure is 1000 to 10000 nM; as for `Cc1c(OCCCN2CC(O)C2)cccc1-c1cccc(-c2ccc3c(c2)CCNC3)c1C` [Compd 1.112], under 1000 nM; as for `Cc1c(OCCCN2[C@H](C)CC[C@H]2C)cccc1-c1cccc(-c2ccc(CN(C)C)c(OC(C)C)c2)c1C` [Compd 1.074], under 1000 nM.
`COc1cc(-c2cccc(-c3cccc(-c4cc(F)c(CN(C)C[C@@H]5CCC(=O)N5)c(OC)c4)c3C)c2C)cc(F)c1CN(C)C[C@@H]1CCC(=O)N1` [Compd 1.047]: the IC50 is under 1000 nM.
Then `COc1cc(-c2cccc(-c3cccc(-c4cc(F)c(CNCCC(=O)O)c(OC)c4)c3C)c2C)cc(F)c1CNCCC(=O)O` [Compd 1.055], with under 1000 nM; and `COc1cc(CNCCCC(=O)O)cc(-c2cccc(-c3cccc(OCCCN4[C@H](C)CC[C@H]4C)c3C)c2C)c1` [Compd 1.065], with 1000 to 10000 nM.
Compound `COc1cc(-c2cccc(-c3cccc(-c4cc(F)c(CN(C)CCCC(=O)O)c(OC)c4)c3C)c2C)cc(F)c1CN(C)CCCC(=O)O` [Compd 1.058] had a concentration for half-maximal inhibition (IC50) of under 1000 nM.
Then `Cc1c(OCCCN2[C@H](C)CC[C@H]2C)cccc1-c1cccc(-c2cc(F)c(CNCCCC(=O)O)c(F)c2)c1C` [Compd 1.061], with under 1000 nM; and `COc1cccc(-c2cccc(-c3ccc4c(c3)CCNC4)c2C)c1C` [Compd 1.115, 6-(3′-methoxy-2,2′-dimethyl-[1,1′-biphenyl]-3-yl)-1,2,3,4-tetrahydroisoquinoline], with 1000 to 10000 nM.
In the case of `Cc1c(OCCCN2CCC(F)CC2)cccc1-c1cccc(-c2ccc(CN)cc2)c1C` [Compd 1.077], the concentration for half-maximal inhibition (IC50) was under 1000 nM.
In the case of `Cc1c(OCCCN2CCCC2(C)C)cccc1-c1cccc(-c2ccc3c(c2)CCNC3)c1C` [Compd 1.105], the half-inhibitory concentration (IC50) was under 1000 nM.
For the compound `COc1cc(CN(C)C)ccc1-c1cccc(-c2cccc(OCCCN3CCC(F)CC3)c2C)c1C` [Compd 1.093], the half-maximal inhibitory concentration (IC50) lay within 1000 to 10000 nM.
`COc1cc(-c2cccc(-c3ccc4c(c3C)CNCC4)c2C)cc(F)c1CNCCO` [Compd 1.020] yielded a concentration for half-maximal inhibition (IC50) of 1000 to 10000 nM.
`COc1cc(-c2cccc(-c3cc(F)c(CN)c(OC)c3)c2C)ccc1F` [Compd 1.021] came in with an IC50 of 1000 to 10000 nM.
On to `Cc1c(OCCCN2CCC(F)CC2)cccc1-c1cccc(-c2ccc(CN(C)C)cc2Cl)c1C` [Compd 1.095], for which the IC50 lay within 1000 to 10000 nM.
Then `Cc1c(OCCCN2[C@H](C)CC[C@H]2C)cccc1-c1cccc(-c2ccc([C@@H](C)N)cc2)c1C` [Compd 1.099], with under 1000 nM; and `Cc1c(-c2ccc(CN)cc2)cccc1-c1ccc2c(c1)OCCO2` [Compd 1.127], with 1000 to 10000 nM.
In the case of `COc1cc(-c2cccc(-c3cccc(-c4cc(F)c(CNCCO)c(OC)c4)c3C)c2C)cc(F)c1CN` [Compd 1.035], the IC50 is under 1000 nM.
Then `COc1cc(-c2cccc(-c3cccc(OCCCN4CCC(F)CC4)c3C)c2C)ccc1CN(C)C` [Compd 1.094], with under 1000 nM.
Then `Cc1c(OCCCN2[C@H](C)CC[C@H]2C)cccc1-c1cccc(-c2ccc(CN)cc2)c1C` [Compd 1.121], with under 1000 nM.
Take `CCOc1cc(-c2cccc(-c3cccc(OCCCN4[C@H](C)CC[C@H]4C)c3C)c2C)ccc1CN(C)C` [Compd 1.075]: the half-maximal inhibitory concentration (IC50) is under 1000 nM.
As for `Cc1c(OCCCN2[C@H](C)CC[C@H]2C)cccc1-c1cccc(-c2ccc3c(c2)CC(C(=O)O)NC3)c1C` (stereo partly shown) [Compd 1.064], the figure is 1000 to 10000 nM.
In turn, `Cc1c(-c2ccc3c(c2)CCNC3)cccc1-c1cccc(-c2ccc3c(c2)CCNC3)c1C` [Compd 1.042] registered a half-maximal inhibitory concentration (IC50) of under 1000 nM.
